“And” between values parts separate entries of the source, which are not always exact repeats. Identical values can stand only once. Marks after values point to notes of the source that are not given here.
System: male rats
Assay: 28-day repeated dose study, plasma metabolite profiling (GC-MS, LC-MS), male rats
Type: in vivo, rat
Description: Drinking water was also offered ad libitum.

CC(C=O)Cc1ccc(C(C)(C)C)cc1 (centres unmarked) [Lysmeral, 2-Methyl-3(4-tert.-butylphenyl)-propanal]
3-Hydroxybutyrate, plasma, treatment ratio versus control (day 7): 0.24* and 0.21* | 3-O-Methylsphingosine (d18:1), plasma, treatment ratio versus control (day 7): 0.22 | 5-O-Methylsphingosine (d18:1), plasma, treatment ratio versus control (day 7): 0.19 | 5-Oxoproline, plasma, treatment ratio versus control (day 7): 0.65* | Arginine, plasma, treatment ratio versus control (day 7): 1.37* | Campesterol, plasma, treatment ratio versus control (day 7): 0.24* | Ceramide (d18:1,C24:0), plasma, treatment ratio versus control (day 7): 0.59* | Ceramide (d18:1,C24:1), plasma, treatment ratio versus control (day 7): 0.47* | Cholesterol, plasma, treatment ratio versus control (day 7): 0.3 | Choline plasmalogen No 03, plasma, treatment ratio versus control (day 7): 0.51* | Coenzyme Q9, plasma, treatment ratio versus control (day 7): 0.21* | Coenzyme Q10, plasma, treatment ratio versus control (day 7): 0.33* | Glutamate, plasma, treatment ratio versus control (day 7): 0.72 | Glutamine, plasma, treatment ratio versus control (day 7): 0.65* | Histidine, plasma, treatment ratio versus control (day 7): 1.21* | Homovanillic acid (HVA), plasma, treatment ratio versus control (day 7): 0.21* | Isopalmitic acid (C16:0), plasma, treatment ratio versus control (day 7): 0.46* | Lignoceric acid (C24:0), plasma, treatment ratio versus control (day 7): 0.36 | Linoleic acid (C18:cis[9,12]2), plasma, treatment ratio versus control (day 7): 0.44* | Lysine, plasma, treatment ratio versus control (day 7): 6.14* | Myristic acid (C14:0), plasma, treatment ratio versus control (day 7): 0.54 | Oleic acid (C18:cis[9]1), plasma, treatment ratio versus control (day 7): 0.87 | Palmitic acid (C16:0), plasma, treatment ratio versus control (day 7): 0.42* | Palmitoleic acid (C16:cis[9]1), plasma, treatment ratio versus control (day 7): 0.66 | Phosphatidylcholine (C16:0,C18:2), plasma, treatment ratio versus control (day 7): 0.89* | Phosphatidylcholine (C18:1,C18:2), plasma, treatment ratio versus control (day 7): 0.74* | Serine, plasma, treatment ratio versus control (day 7): 1.36* | Sphingomyelin (d18:1,C16:0), plasma, treatment ratio versus control (day 7): 0.84* | Sphingomyelin (d18:1,C24:0), plasma, treatment ratio versus control (day 7): 0.52* | Sphingomyelin (d18:2,C16:0), plasma, treatment ratio versus control (day 7): 0.58* | Stearic acid (C18:0), plasma, treatment ratio versus control (day 7): 0.34* | TAG (C16:0,C16:1), plasma, treatment ratio versus control (day 7): 0.47 | Threonine, plasma, treatment ratio versus control (day 7): 1.46* | alpha-Tocopherol, plasma, treatment ratio versus control (day 7): 0.52* | beta-Sitosterol, plasma, treatment ratio versus control (day 7): 0.43* | erythro-Sphingosine, plasma, treatment ratio versus control (day 7): 0.21 | threo-Sphingosine, plasma, treatment ratio versus control (day 7): 0.25 | Lysophosphatidylcholine (C20:4), plasma, treatment ratio versus control (day 7, first listing in Table 3): 0.87* | Lysophosphatidylcholine (C20:4), plasma, treatment ratio versus control (day 7, second listing in Table 3): 0.67* | 3-Hydroxybutyrate, plasma, treatment ratio versus control (day 14): 0.29* and 0.2* | 3-O-Methylsphingosine (d18:1), plasma, treatment ratio versus control (day 14): 0.45* | 5-O-Methylsphingosine (d18:1), plasma, treatment ratio versus control (day 14): 0.48* | Arginine, plasma, treatment ratio versus control (day 14): 1.59* | Campesterol, plasma, treatment ratio versus control (day 14): 0.43* | Ceramide (d18:1,C24:0), plasma, treatment ratio versus control (day 14): 0.59* | Ceramide (d18:1,C24:1), plasma, treatment ratio versus control (day 14): 0.38* | Cholesterol, plasma, treatment ratio versus control (day 14): 0.47* | Choline plasmalogen No 03, plasma, treatment ratio versus control (day 14): 0.66* | Coenzyme Q9, plasma, treatment ratio versus control (day 14): 0.27* | Coenzyme Q10, plasma, treatment ratio versus control (day 14): 0.24* | Dodecanol, plasma, treatment ratio versus control (day 14): 0.75* | Glutamate, plasma, treatment ratio versus control (day 14): 0.93 | Glutamine, plasma, treatment ratio versus control (day 14): 0.8 | Histidine, plasma, treatment ratio versus control (day 14): 1.37* | Homovanillic acid (HVA), plasma, treatment ratio versus control (day 14): 0.47* | Isopalmitic acid (C16:0), plasma, treatment ratio versus control (day 14): 0.49* | Lignoceric acid (C24:0), plasma, treatment ratio versus control (day 14): 0.52* | Linoleic acid (C18:cis[9,12]2), plasma, treatment ratio versus control (day 14): 0.57* | Lysine, plasma, treatment ratio versus control (day 14): 6.55* | Myristic acid (C14:0), plasma, treatment ratio versus control (day 14): 0.59* | Oleic acid (C18:cis[9]1), plasma, treatment ratio versus control (day 14): 1.01 | Palmitic acid (C16:0), plasma, treatment ratio versus control (day 14): 0.56* | Palmitoleic acid (C16:cis[9]1), plasma, treatment ratio versus control (day 14): 0.55* | Phosphatidylcholine (C16:0,C18:2), plasma, treatment ratio versus control (day 14): 0.93* | Phosphatidylcholine (C18:1,C18:2), plasma, treatment ratio versus control (day 14): 0.79* | Serine, plasma, treatment ratio versus control (day 14): 1.54* | Sphingomyelin (d18:1,C16:0), plasma, treatment ratio versus control (day 14): 0.88* | Sphingomyelin (d18:1,C24:0), plasma, treatment ratio versus control (day 14): 0.62* | Sphingomyelin (d18:2,C16:0), plasma, treatment ratio versus control (day 14): 0.53* | Stearic acid (C18:0), plasma, treatment ratio versus control (day 14): 0.51* | TAG (C16:0,C16:1), plasma, treatment ratio versus control (day 14): 0.67* | Threonine, plasma, treatment ratio versus control (day 14): 1.74* | alpha-Tocopherol, plasma, treatment ratio versus control (day 14): 0.56* | beta-Sitosterol, plasma, treatment ratio versus control (day 14): 0.57* | erythro-Sphingosine, plasma, treatment ratio versus control (day 14): 0.51* | threo-Sphingosine, plasma, treatment ratio versus control (day 14): 0.5* | Lysophosphatidylcholine (C20:4), plasma, treatment ratio versus control (day 14, first listing in Table 3): 0.95* | Lysophosphatidylcholine (C20:4), plasma, treatment ratio versus control (day 14, second listing in Table 3): 0.61* | 3-Hydroxybutyrate, plasma, treatment ratio versus control (day 28): 0.52* and 0.49* | 3-O-Methylsphingosine (d18:1), plasma, treatment ratio versus control (day 28): 0.48* | 5-O-Methylsphingosine (d18:1), plasma, treatment ratio versus control (day 28): 0.48* | 5-Oxoproline, plasma, treatment ratio versus control (day 28): 0.74* | Arginine, plasma, treatment ratio versus control (day 28): 1.76* | Campesterol, plasma, treatment ratio versus control (day 28): 0.35* | Ceramide (d18:1,C24:0), plasma, treatment ratio versus control (day 28): 0.44* | Ceramide (d18:1,C24:1), plasma, treatment ratio versus control (day 28): 0.38* | Cholesterol, plasma, treatment ratio versus control (day 28): 0.49* | Choline plasmalogen No 03, plasma, treatment ratio versus control (day 28): 0.6* | Coenzyme Q9, plasma, treatment ratio versus control (day 28): 0.31* | Coenzyme Q10, plasma, treatment ratio versus control (day 28): 0.37* | Glutamate, plasma, treatment ratio versus control (day 28): 0.82* | Glutamine, plasma, treatment ratio versus control (day 28): 0.81* | Histidine, plasma, treatment ratio versus control (day 28): 1.56* | Homovanillic acid (HVA), plasma, treatment ratio versus control (day 28): 0.26* | Isopalmitic acid (C16:0), plasma, treatment ratio versus control (day 28): 0.34* | Lignoceric acid (C24:0), plasma, treatment ratio versus control (day 28): 0.6* | Linoleic acid (C18:cis[9,12]2), plasma, treatment ratio versus control (day 28): 0.38* | Lysine, plasma, treatment ratio versus control (day 28): 8.13* | Myristic acid (C14:0), plasma, treatment ratio versus control (day 28): 0.53* | Oleic acid (C18:cis[9]1), plasma, treatment ratio versus control (day 28): 0.81* | Palmitic acid (C16:0), plasma, treatment ratio versus control (day 28): 0.48* | Palmitoleic acid (C16:cis[9]1), plasma, treatment ratio versus control (day 28): 0.37* | Phosphatidylcholine (C16:0,C18:2), plasma, treatment ratio versus control (day 28): 0.92* | Phosphatidylcholine (C18:1,C18:2), plasma, treatment ratio versus control (day 28): 0.83* | Serine, plasma, treatment ratio versus control (day 28): 1.7* | Sphingomyelin (d18:1,C16:0), plasma, treatment ratio versus control (day 28): 0.79* | Sphingomyelin (d18:1,C24:0), plasma, treatment ratio versus control (day 28): 0.64* | Sphingomyelin (d18:2,C16:0), plasma, treatment ratio versus control (day 28): 0.55* | Stearic acid (C18:0), plasma, treatment ratio versus control (day 28): 0.55* | TAG (C16:0,C16:1), plasma, treatment ratio versus control (day 28): 0.66* | Threonine, plasma, treatment ratio versus control (day 28): 2.15* | beta-Sitosterol, plasma, treatment ratio versus control (day 28): 0.55* | erythro-Sphingosine, plasma, treatment ratio versus control (day 28): 0.51* | threo-Sphingosine, plasma, treatment ratio versus control (day 28): 0.51* | Lysophosphatidylcholine (C20:4), plasma, treatment ratio versus control (day 28, first listing in Table 3): 0.94* | Lysophosphatidylcholine (C20:4), plasma, treatment ratio versus control (day 28, second listing in Table 3): 0.5*
